Test results published in ChEMBL document CHEMBL1131940 (Bioorg Med Chem Lett, 1999).

biological target: Estrogen receptor (Homo sapiens, UniProt Q92731+P03372); details: mcf-7
Description: In vitro inhibition of estrogen-stimulated MCF-7 cell proliferation

SMILES | IC50 [µM]
O=C(c1ccc(SCCN2CCCCC2)cc1)c1c(-c2ccc(O)cc2)sc2cc(O)ccc12 | 0.0009
COc1ccc(-c2sc3cc(OC)ccc3c2C(=O)c2ccc(S(=O)(=O)CCN3CCCCC3)cc2)cc1 | > 1
O=C(c1ccc(S(=O)(=O)CCN2CCCCC2)cc1)c1c(-c2ccc(O)cc2)sc2cc(O)ccc12 | 0.03
CN(CCN1CCCCC1)c1ccc(C(=O)c2c(-c3ccc(O)cc3)sc3cc(O)ccc23)cc1 | 0.01
O=C(c1ccc(CCCN2CCCCC2)cc1)c1c(-c2ccc(O)cc2)sc2cc(O)ccc12 | 0.01
O=C(c1ccc(NCCN2CCCCC2)cc1)c1c(-c2ccc(O)cc2)sc2cc(O)ccc12 | 0.002
COc1ccc(-c2sc3cc(OC)ccc3c2C(=O)c2ccc(CCCN3CCCCC3)cc2)cc1 | 1
